In ChEMBL document CHEMBL4507294, “Data for DCP probe MSD-CYP11B2” (2021):

Legend:
[1] = tested on: Mast/stem cell growth factor receptor Kit (Homo sapiens), P10721 [D816H]; conditions: Compound concentration 1000.0 nM
[2] = molecular target: Phosphatidylinositol 4,5-bisphosphate 3-kinase catalytic subunit beta isoform (Homo sapiens) (UniProt P42338); conditions: Compound concentration 1000.0 nM
[3] = molecular target: Tyrosine-protein kinase ITK/TSK (Homo sapiens) (UniProt Q08881); conditions: Compound concentration 1000.0 nM
Tyrosine-protein kinase ITK/TSK (Homo sapiens), sequence (Q08881 whole entry): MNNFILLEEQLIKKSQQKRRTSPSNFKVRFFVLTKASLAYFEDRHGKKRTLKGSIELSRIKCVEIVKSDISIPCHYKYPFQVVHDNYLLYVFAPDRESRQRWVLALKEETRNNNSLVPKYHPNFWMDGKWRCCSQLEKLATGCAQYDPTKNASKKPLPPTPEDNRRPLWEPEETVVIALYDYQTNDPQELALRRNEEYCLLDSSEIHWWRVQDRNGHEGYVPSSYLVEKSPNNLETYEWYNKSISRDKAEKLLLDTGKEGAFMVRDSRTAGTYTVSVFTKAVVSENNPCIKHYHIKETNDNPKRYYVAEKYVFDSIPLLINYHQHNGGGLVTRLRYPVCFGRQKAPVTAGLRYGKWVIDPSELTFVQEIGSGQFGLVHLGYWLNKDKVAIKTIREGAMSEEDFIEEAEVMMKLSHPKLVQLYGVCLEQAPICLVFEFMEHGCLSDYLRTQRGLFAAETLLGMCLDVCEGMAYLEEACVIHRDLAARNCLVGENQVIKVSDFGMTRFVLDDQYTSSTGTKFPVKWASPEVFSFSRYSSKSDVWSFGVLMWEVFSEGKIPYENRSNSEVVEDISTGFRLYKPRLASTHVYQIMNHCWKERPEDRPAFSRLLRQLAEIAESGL

[4] = molecular target: Mitogen-activated protein kinase kinase kinase 13 (Homo sapiens) (UniProt O43283); conditions: Compound concentration 1000.0 nM
[5] = molecular target: Serine/threonine-protein kinase DCLK3 (Homo sapiens) (UniProt Q9C098); conditions: Compound concentration 1000.0 nM
[6] = tested on: Phosphatidylinositol 4,5-bisphosphate 3-kinase catalytic subunit alpha isoform (Homo sapiens), P42336 [E542K]; conditions: Compound concentration 1000.0 nM
[7] = molecular target: Alpha-2A adrenergic receptor (Homo sapiens) (UniProt P08913); conditions: Compound concentration 10.0 uM
[8] = tested on: Receptor-type tyrosine-protein kinase FLT3 (Homo sapiens), P36888 [UNDEFINED MUTATION]; conditions: Compound concentration 1000.0 nM
[9] = molecular target: Activated CDC42 kinase 1 (Homo sapiens) (UniProt Q07912); conditions: Compound concentration 1000.0 nM
Activated CDC42 kinase 1 (Homo sapiens), sequence (Q07912 whole entry, looked up, canonical isoform): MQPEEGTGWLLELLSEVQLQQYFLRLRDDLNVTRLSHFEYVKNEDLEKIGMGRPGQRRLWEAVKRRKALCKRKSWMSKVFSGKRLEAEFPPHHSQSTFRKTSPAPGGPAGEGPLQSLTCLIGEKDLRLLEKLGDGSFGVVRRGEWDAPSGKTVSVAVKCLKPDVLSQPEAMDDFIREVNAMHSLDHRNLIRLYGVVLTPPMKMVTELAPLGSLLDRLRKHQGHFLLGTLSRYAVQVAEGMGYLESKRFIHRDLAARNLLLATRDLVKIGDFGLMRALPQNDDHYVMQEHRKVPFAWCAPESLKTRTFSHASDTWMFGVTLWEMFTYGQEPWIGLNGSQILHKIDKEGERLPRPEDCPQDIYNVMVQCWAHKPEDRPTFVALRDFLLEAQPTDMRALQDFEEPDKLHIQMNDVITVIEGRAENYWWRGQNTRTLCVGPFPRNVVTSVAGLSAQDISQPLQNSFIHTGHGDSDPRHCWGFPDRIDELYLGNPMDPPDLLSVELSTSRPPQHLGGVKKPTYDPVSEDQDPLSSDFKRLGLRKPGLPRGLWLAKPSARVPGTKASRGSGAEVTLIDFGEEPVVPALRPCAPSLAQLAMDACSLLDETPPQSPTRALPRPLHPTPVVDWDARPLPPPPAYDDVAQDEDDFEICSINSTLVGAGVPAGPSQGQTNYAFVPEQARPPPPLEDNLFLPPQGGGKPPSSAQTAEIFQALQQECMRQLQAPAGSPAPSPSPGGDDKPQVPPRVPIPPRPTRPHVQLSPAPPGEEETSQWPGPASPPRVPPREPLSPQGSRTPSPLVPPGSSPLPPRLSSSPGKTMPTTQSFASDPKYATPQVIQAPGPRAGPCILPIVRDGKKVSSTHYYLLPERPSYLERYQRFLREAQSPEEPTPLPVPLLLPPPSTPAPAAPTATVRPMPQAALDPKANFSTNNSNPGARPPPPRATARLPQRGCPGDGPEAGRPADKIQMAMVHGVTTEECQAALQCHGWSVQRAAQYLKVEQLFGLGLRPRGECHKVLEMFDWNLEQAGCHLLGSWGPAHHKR

[10] = molecular target: Phosphorylase b kinase regulatory subunit alpha, liver isoform (Homo sapiens) (UniProt P46019); conditions: Compound concentration 1000.0 nM
[11] = molecular target: Mitogen-activated protein kinase 15 (Homo sapiens) (UniProt Q8TD08); conditions: Compound concentration 1000.0 nM
[12] = molecular target: Serine/threonine-protein kinase N1 (Homo sapiens) (UniProt Q16512); conditions: Compound concentration 1000.0 nM
Serine/threonine-protein kinase N1 (Homo sapiens), sequence (Q16512 2-942 limits assumed): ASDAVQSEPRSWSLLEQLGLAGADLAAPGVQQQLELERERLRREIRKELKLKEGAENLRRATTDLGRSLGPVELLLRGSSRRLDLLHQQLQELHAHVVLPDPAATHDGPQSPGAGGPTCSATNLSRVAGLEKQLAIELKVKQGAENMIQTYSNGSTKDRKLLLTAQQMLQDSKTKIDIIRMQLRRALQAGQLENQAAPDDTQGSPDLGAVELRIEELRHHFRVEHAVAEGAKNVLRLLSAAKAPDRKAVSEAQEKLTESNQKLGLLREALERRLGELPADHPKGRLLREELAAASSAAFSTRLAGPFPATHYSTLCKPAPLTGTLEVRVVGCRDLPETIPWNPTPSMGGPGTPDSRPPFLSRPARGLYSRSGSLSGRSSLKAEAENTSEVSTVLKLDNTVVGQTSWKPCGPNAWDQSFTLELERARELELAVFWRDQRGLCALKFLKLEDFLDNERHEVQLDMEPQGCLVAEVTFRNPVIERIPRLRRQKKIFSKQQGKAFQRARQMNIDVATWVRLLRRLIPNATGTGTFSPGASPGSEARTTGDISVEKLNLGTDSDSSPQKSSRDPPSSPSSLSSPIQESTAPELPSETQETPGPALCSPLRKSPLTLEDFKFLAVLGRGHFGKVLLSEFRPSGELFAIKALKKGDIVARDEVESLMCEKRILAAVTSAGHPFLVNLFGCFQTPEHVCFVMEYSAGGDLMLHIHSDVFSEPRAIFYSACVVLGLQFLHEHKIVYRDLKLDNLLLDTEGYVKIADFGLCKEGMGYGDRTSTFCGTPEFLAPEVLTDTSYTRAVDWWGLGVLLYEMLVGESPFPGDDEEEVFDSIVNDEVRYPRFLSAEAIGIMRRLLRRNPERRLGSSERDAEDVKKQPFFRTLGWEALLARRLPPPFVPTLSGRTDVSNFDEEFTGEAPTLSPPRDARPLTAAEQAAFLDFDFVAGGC

[13] = molecular target: Serine/threonine-protein kinase Nek4 (Homo sapiens) (UniProt P51957); conditions: Compound concentration 1000.0 nM
[14] = molecular target: Sigma non-opioid intracellular receptor 1 (Homo sapiens) (UniProt Q99720); conditions: Compound concentration 10.0 uM
[15] = tested on: Epidermal growth factor receptor (Homo sapiens), P00533 [L858R]; conditions: Compound concentration 1000.0 nM
[16] = molecular target: Ephrin type-A receptor 6 (Homo sapiens) (UniProt Q9UF33); conditions: Compound concentration 1000.0 nM
Ephrin type-A receptor 6 (Homo sapiens), sequence (Q9UF33 whole entry, canonical isoform): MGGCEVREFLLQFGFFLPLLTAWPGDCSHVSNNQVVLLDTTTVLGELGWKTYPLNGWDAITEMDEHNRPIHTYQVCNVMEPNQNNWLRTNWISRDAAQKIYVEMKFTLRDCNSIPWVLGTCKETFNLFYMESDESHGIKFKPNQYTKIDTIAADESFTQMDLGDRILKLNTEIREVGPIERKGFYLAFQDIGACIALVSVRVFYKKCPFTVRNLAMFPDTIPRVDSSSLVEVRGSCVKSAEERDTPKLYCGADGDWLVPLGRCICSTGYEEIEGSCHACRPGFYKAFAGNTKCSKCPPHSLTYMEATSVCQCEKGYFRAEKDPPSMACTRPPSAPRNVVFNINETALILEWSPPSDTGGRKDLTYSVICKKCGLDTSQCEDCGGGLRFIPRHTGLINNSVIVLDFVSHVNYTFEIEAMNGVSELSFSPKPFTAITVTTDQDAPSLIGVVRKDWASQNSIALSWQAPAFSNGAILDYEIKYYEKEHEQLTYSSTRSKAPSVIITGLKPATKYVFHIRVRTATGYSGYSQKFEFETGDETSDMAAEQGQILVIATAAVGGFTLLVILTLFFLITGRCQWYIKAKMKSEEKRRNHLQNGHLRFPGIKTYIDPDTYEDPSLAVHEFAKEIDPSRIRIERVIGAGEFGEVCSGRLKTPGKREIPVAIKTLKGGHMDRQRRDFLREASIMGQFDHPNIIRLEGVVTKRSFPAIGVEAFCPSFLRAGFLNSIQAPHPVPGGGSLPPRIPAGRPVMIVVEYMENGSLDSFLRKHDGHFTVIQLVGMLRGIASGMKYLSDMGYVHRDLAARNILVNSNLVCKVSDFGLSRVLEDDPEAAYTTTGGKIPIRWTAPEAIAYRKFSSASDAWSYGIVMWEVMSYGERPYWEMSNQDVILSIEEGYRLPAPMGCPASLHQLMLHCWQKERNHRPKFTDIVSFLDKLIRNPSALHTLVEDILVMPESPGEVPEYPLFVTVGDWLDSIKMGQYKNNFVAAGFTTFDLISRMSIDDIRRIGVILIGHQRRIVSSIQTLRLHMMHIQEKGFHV

[17] = molecular target: Phosphatidylinositol 4,5-bisphosphate 3-kinase catalytic subunit gamma isoform (Homo sapiens) (UniProt P48736); conditions: Compound concentration 1000.0 nM
[18] = molecular target: Serine/threonine-protein kinase mTOR (Homo sapiens) (UniProt P42345); conditions: Compound concentration 1000.0 nM
[19] = molecular target: Cyclin-dependent kinase 2 (Homo sapiens) (UniProt P24941); conditions: Compound concentration 1000.0 nM
[20] = molecular target: Mitogen-activated protein kinase kinase kinase 20 (Homo sapiens) (UniProt Q9NYL2); conditions: Compound concentration 1000.0 nM
[21] = molecular target: Serine/threonine-protein kinase TAO3 (Homo sapiens) (UniProt Q9H2K8); conditions: Compound concentration 1000.0 nM
[22] = tested on: Proto-oncogene tyrosine-protein kinase receptor Ret (Homo sapiens), P07949 [V804M]; conditions: Compound concentration 1000.0 nM
[23] = molecular target: LIM domain kinase 1 (Homo sapiens) (UniProt P53667); conditions: Compound concentration 1000.0 nM
[24] = molecular target: Aurora kinase A (Homo sapiens) (UniProt O14965); conditions: Compound concentration 1000.0 nM
Aurora kinase A (Homo sapiens), sequence (O14965 whole entry): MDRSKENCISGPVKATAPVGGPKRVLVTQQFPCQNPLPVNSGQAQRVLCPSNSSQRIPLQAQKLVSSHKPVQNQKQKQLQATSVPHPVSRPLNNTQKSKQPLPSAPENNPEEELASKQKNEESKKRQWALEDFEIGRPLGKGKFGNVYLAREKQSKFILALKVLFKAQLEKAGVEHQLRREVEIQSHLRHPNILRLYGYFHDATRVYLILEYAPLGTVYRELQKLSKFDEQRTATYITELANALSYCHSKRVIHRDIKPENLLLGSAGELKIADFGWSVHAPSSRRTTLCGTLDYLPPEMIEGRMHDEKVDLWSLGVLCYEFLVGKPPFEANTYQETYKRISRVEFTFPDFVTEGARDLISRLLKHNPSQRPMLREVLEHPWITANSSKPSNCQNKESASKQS

[25] = molecular target: 5-hydroxytryptamine receptor 1A (Homo sapiens) (UniProt P08908); conditions: Compound concentration 10.0 uM
[26] = molecular target: Serine/threonine-protein kinase pim-2 (Homo sapiens) (UniProt Q9P1W9); conditions: Compound concentration 1000.0 nM
[27] = molecular target: Cyclin-dependent kinase 11B (Homo sapiens) (UniProt P21127); conditions: Compound concentration 1000.0 nM
[28] = molecular target: SNF-related serine/threonine-protein kinase (Homo sapiens) (UniProt Q9NRH2); conditions: Compound concentration 1000.0 nM
[29] = tested on: Phosphatidylinositol 4,5-bisphosphate 3-kinase catalytic subunit alpha isoform (Homo sapiens), P42336 [I800L]; conditions: Compound concentration 1000.0 nM
[30] = molecular target: Vascular endothelial growth factor receptor 2 (Homo sapiens) (UniProt P35968); conditions: Compound concentration 1000.0 nM
[31] = molecular target: STE20-like serine/threonine-protein kinase (Homo sapiens) (UniProt Q9H2G2); conditions: Compound concentration 1000.0 nM
[32] = molecular target: Serine/threonine-protein kinase Sgk2 (Homo sapiens) (UniProt Q9HBY8); conditions: Compound concentration 1000.0 nM
Serine/threonine-protein kinase Sgk2 (Homo sapiens), sequence (Q9HBY8 whole entry): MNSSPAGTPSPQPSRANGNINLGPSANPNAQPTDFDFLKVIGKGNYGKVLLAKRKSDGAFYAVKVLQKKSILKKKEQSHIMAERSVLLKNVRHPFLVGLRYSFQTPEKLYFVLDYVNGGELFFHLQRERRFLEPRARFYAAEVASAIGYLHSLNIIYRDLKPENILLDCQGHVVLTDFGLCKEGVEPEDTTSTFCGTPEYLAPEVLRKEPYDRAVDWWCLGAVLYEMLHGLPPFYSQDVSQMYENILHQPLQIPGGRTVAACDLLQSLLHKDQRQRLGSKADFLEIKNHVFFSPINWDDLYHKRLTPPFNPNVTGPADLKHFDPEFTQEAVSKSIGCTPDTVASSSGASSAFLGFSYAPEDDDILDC

[33] = molecular target: Serine/threonine-protein kinase WNK4 (Homo sapiens) (UniProt Q96J92); conditions: Compound concentration 1000.0 nM
[34] = tested on: Tyrosine-protein kinase ABL1 (Homo sapiens), P00519 [Y253F]; conditions: Compound concentration 1000.0 nM
[35] = molecular target: Wee1-like protein kinase (Homo sapiens) (UniProt P30291); conditions: Compound concentration 1000.0 nM
[36] = molecular target: 5-hydroxytryptamine receptor 6 (Homo sapiens, UniProt P50406); conditions: Compound concentration 10.0 uM
[37] = molecular target: Serine/threonine-protein kinase MAK (Homo sapiens) (UniProt P20794); conditions: Compound concentration 1000.0 nM
[38] = molecular target: Mitogen-activated protein kinase 7 (Homo sapiens) (UniProt Q13164); conditions: Compound concentration 1000.0 nM
[39] = molecular target: Myosin light chain kinase, smooth muscle (Homo sapiens) (UniProt Q15746); conditions: Compound concentration 1000.0 nM
[40] = molecular target: Dual specificity protein kinase CLK3 (Homo sapiens) (UniProt P49761); conditions: Compound concentration 1000.0 nM
[41] = molecular target: Mitogen-activated protein kinase 6 (Homo sapiens) (UniProt Q16659); conditions: Compound concentration 1000.0 nM
[42] = molecular target: Ephrin type-B receptor 3 (Homo sapiens) (UniProt P54753); conditions: Compound concentration 1000.0 nM
[43] = molecular target: Dual specificity tyrosine-phosphorylation-regulated kinase 2 (Homo sapiens) (UniProt Q92630); conditions: Compound concentration 1000.0 nM
Dual specificity tyrosine-phosphorylation-regulated kinase 2 (Homo sapiens), sequence (Q92630 whole entry): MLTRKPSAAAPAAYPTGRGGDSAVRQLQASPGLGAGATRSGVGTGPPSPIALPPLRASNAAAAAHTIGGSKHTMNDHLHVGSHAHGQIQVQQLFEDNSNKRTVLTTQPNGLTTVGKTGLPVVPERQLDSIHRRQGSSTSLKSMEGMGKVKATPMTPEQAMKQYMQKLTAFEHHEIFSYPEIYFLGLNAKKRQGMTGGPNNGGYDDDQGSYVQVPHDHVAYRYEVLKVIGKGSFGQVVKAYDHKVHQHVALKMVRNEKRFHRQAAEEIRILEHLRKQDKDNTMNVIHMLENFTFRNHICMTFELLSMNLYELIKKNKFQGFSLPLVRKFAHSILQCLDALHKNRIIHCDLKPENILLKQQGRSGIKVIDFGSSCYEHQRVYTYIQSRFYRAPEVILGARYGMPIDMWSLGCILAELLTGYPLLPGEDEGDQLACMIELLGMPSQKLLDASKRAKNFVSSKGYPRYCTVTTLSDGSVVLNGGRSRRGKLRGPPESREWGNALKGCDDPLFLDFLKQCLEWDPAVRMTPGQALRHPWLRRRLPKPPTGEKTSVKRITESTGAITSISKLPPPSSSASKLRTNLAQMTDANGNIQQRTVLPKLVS

[44] = molecular target: Mitogen-activated protein kinase 10 (Homo sapiens) (UniProt P53779); conditions: Compound concentration 1000.0 nM
[45] = molecular target: Serine/threonine-protein kinase Nek2 (Homo sapiens) (UniProt P51955); conditions: Compound concentration 1000.0 nM

FC(F)(F)c1ccc2c(c1)nc(-c1cccnc1)n2C1CC1 [MSD-CYP11B2-Negative-control]
active: inhibition [36] 60.4%
inactive: residual activity [1] 100% | residual activity [2] 97% | residual activity [3] 100% | residual activity [4] 100% | residual activity [5] 100% | residual activity [6] 100% | inhibition [7] 6.92% | residual activity [8] 100% | residual activity [9] 100% | residual activity [10] 100% | residual activity [11] 100% | residual activity [12] 100% | residual activity [13] 100% | inhibition [14] 16.9% | residual activity [15] 91% | residual activity [16] 100% | residual activity [17] 92% | residual activity [18] 80% | residual activity [19] 100% | residual activity [20] 100% | residual activity [21] 100% | residual activity [22] 100% | residual activity [23] 100% | residual activity [24] 98% | inhibition [25] 0.44% | residual activity [26] 100% | residual activity [27] 100% | residual activity [28] 82% | residual activity [29] 99% | residual activity [30] 100% | residual activity [31] 100% | residual activity [32] 100% | residual activity [33] 100% | residual activity [34] 100% | residual activity [35] 93% | residual activity [37] 100% | residual activity [38] 100% | residual activity [39] 100% | residual activity [40] 100% | residual activity [41] 100% | residual activity [42] 100% | residual activity [43] 100% | residual activity [44] 100% | residual activity [45] 100%

CC(C)(O)c1cncc(-c2nc3ccc(F)cc3n2C2CC2)c1 [MSD-CYP11B2]
inactive: residual activity [1] 100% | residual activity [2] 81% | residual activity [3] 100% | residual activity [4] 100% | residual activity [5] 100% | residual activity [6] 84% | residual activity [8] 100% | residual activity [9] 100% | residual activity [10] 100% | residual activity [11] 90% | residual activity [12] 100% | residual activity [13] 100% | inhibition [14] 27.7% | residual activity [15] 100% | residual activity [16] 100% | residual activity [17] 77% | residual activity [18] 96% | residual activity [19] 100% | residual activity [20] 100% | residual activity [21] 100% | residual activity [22] 100% | residual activity [23] 100% | residual activity [24] 94% | inhibition [25] 1.22% | residual activity [26] 100% | residual activity [27] 100% | residual activity [28] 86% | residual activity [29] 90% | residual activity [30] 100% | residual activity [31] 100% | residual activity [32] 100% | residual activity [33] 100% | residual activity [34] 100% | residual activity [35] 72% | inhibition [36] 15.6% | residual activity [37] 100% | residual activity [38] 100% | residual activity [39] 80% | residual activity [40] 100% | residual activity [41] 100% | residual activity [42] 100% | residual activity [43] 100% | residual activity [44] 100% | residual activity [45] 100%
active: inhibition [7] 74.6%
